Test results reported in PubChem BioAssay (NCI).
Values joined by “and” are separate entries in the source; they are usually repeats but may differ in a detail not shown here. Identical values can stand only once.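 Dose response: 5 concentrations. Exposure: 48 h. Format: 96-well plates. Endpoint: linear interpolation; highest concentration if not reached. GI50: concentration for 50% inhibition of growth. TGI marks complete inhibition of growth.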 Where a SMILES comes first, the peptide text is derived from it. [ ]: non-standard residue; d: D form. The star is where a group is joined. ξ: configuration not given here. ξF = NC(Cc1ccccc1)C(=O)O; Cbz = O=C(OCc1ccccc1)*; Aib = CC(C)(N)C(=O)O

Key:
Experiment in all cases: NCI-60 cell line screen, 48 h
786-0 renal = system: 786-0 renal
HOP-62 NSCLC = system: HOP-62 NSCLC
K-562 leukemia = system: K-562 leukemia
KM12 colon = system: KM12 colon
MDA-N = system: MDA-N
SF-295 CNS = system: SF-295 CNS
SF-539 CNS = system: SF-539 CNS
SK-MEL-28 melanoma = system: SK-MEL-28 melanoma
SW-620 colon = system: SW-620 colon
TK-10 renal = system: TK-10 renal
CAKI-1 renal = system: CAKI-1 renal

Row | Compound | TGI (786-0 renal) | TGI (HOP-62 NSCLC) | TGI (K-562 leukemia) | TGI (KM12 colon) | TGI (MDA-N) | TGI (SF-295 CNS) | TGI (SF-539 CNS) | TGI (SK-MEL-28 melanoma) | TGI (SW-620 colon) | TGI (TK-10 renal) | TGI (CAKI-1 renal) | GI50 (CAKI-1 renal) | GI50 (HOP-62 NSCLC) | GI50 (K-562 leukemia) | GI50 (KM12 colon) | GI50 (SF-539 CNS) | GI50 (SK-MEL-28 melanoma) | GI50 (TK-10 renal)
1 | Cc1ccc(C)n2c1nc1ccc3ccccc3c12 | > 100 µM | > 100 µM | > 100 µM | > 100 µM | > 100 µM | > 100 µM | > 100 µM | > 100 µM | > 100 µM | > 100 µM | – | – | – | – | – | – | – | –
2 | Cn1c(=O)c2c(nc(NCCCCl)n2CC(=O)O)n(C)c1=O | > 100 µM | > 100 µM | > 100 µM | > 100 µM | > 100 µM | > 100 µM | – | > 100 µM | > 100 µM | > 100 µM | > 100 µM | – | – | – | – | – | – | –
3 | OC(C1CCC=NN1C(O)(C(F)(F)F)C(F)(F)F)(C(F)(F)F)C(F)(F)F (configuration not stated) | > 10 µM | > 10 µM | > 10 µM | > 10 µM | > 10 µM | > 10 µM | > 10 µM | > 10 µM | – | > 10 µM | > 10 µM | – | – | – | – | – | – | –
4 | CC(C)C[C@H](NC(=O)[C@H](Cc1cccc2ccccc12)NC(=O)N1CCOCC1)B(O)O | 0.199 µM and 1.09 µM | 0.0137 µM and < 0.018 µM | – | 0.00376 µM | – | – | 0.00032 µM | 0.00096 µM and < 0.0329 µM | 0.00286 µM and 0.0115 µM | 0.0226 µM | 0.0147 µM and 0.0371 µM | 0.00283 µM | 0.00383 µM | 0.00347 µM | 0.00149 µM | 0.000154 µM | 0.000205 µM | 0.00281 µM
5 | COC(=O)C12Oc3ccc(-c4ccc5c(c4O)C(=O)C4=CCC(C)C(O)C4(C(=O)OC)O5)c(O)c3C(=O)C1=CCC(C)C2O (configuration not stated) | 2.98 µM | 4.12 µM | > 30.6 µM | 3.26 µM | – | 6.05 µM | 11.9 µM | 3.51 µM | 2.65 µM | 5.24 µM | 4.7 µM | – | – | – | – | – | – | –
6 | CCCCCc1cc(OC(=O)c2c(O)cc(OC)cc2CCCCC)cc(O)c1C(=O)O | 30.3 µM | 30.7 µM | > 100 µM | 34 µM | – | 35.4 µM | 30.5 µM | 32.9 µM | 36 µM | 36.6 µM | 34.5 µM | – | – | – | – | – | – | –
7 | O=[N+]([O-])c1cccc(-c2csc(N=Nc3c(O)[nH]c4ccccc34)n2)c1 | 29.8 µM | 59.6 µM | – | > 100 µM | > 100 µM | 44.4 µM | 68 µM | 36.1 µM | > 100 µM | 33.9 µM | 47 µM | – | – | – | – | – | – | –
8 | CC(C)(CO)CNc1cc(=O)[nH]c(N)n1 | > 100 µM | > 100 µM | > 100 µM | > 100 µM | > 100 µM | > 100 µM | – | > 100 µM | > 100 µM | – | > 100 µM | – | – | – | – | – | – | –
9 | CC(C)(NC(=O)OCc1ccccc1)C(=O)NC(Cc1ccccc1)C(=O)O (configuration not stated) (Cbz-[Aib]-[ξF]-OH) | > 100 µM | > 100 µM | > 100 µM | > 100 µM | > 100 µM | > 100 µM | > 100 µM | > 100 µM | > 100 µM | – | > 100 µM | – | – | – | – | – | – | –
10 | COC(=O)CCCc1ccc2c(c1)CC1(C2)Cc2cc3c(cc2C1)CCCC3 | > 100 µM | > 100 µM | 52.5 µM | 80.6 µM | 42.3 µM | > 100 µM | > 100 µM | – | – | > 100 µM | – | – | – | – | – | – | – | –
